Earlier results on 2 compounds are cited in PMC6925144, “A prospective compound screening contest identified broader inhibitors for Sirtuin 1” (Scientific Reports, 2019).

For data set [1], the system named is human leukemia U937 cells. The arrangement: method as in PMID 18348515. To be noted: cited from earlier work.
The next data set relates to Sirtuin 1. To be noted: cited from earlier work.

Take `O=C1/C(=C/c2cc(Br)c(O)c(Br)c2)CCC/C1=C\c1cc(Br)c(O)c(Br)c1` [CHEMBL260149]: the “effect on apoptosis induction and granulocytic differentiation” value in data set [1] was “high differentiating activity”. In addition, in the data set with Sirtuin 1 (25 μM), the “Inh. rate@25 μM” value is 0.95 (Inh. rate@25 μM: 50%)[57].

In the case of `O=C(CNC(=O)c1nc(-c2ccccc2)no1)Nc1ccccc1` [CHEMBL449117], the “Inhibition rate@200 μM” value with Sirtuin 1 (200 μM) was 0.64 (Inhibition rate@200 μM: 28%)[69].
